These results are taken from patent publication US7052724B2, “Method of producing active dry yeast” (Suntory Limited, priority 2001, dated 2006).

The subject of this data set is recovered yeast (slurry yeast recovered from the beer fermentation step). The experiment in a line: Methylene Blue staining ratio (mortality) of yeast before drying or after drying and reconstitution with water. The data set is classed as cell-based. The note with it: for Elevating the survival ratio of the yeast after reconstitution with water, similar to glycerol: as substitute for glycerol; for Elevating the survival ratio of the dry yeast after reconstitution with water, similar to trehalose: as substitute for trehalose; for Ratio of the dead cells after drying and reconstitution with water: 5% of trehalose. As to the method: 50 g of a 20% aqueous solution of trehalose was added to 50 g of the recovered yeast and the resultant mixture was stirred at 20° C. for 3 hours to thereby incorporate the trehalose into the yeast cells. Then the yeast having trehalose thus incorporated was filtered under suction on a filter paper No.2 with the use of a Nutsche filter. The obtained yeast was then passed through a 14-mesh sieve and dried in a thermostat at 30° C. for about 20 hours to give a dry yeast. 0.1 g of this dry yeast was suspended and reconstituted in 1 ml of distilled water at room temperature. Then the mortality of the yeast was measured by the Methylene Blue staining method. Since dead cells could not reduce Methylene Blue, the cells stained with Methylene Blue were regarded as dead cells. Thus, the Methylene Blue staining ratio could be referred to as the mortality. […] Thus, trehalose was incorporated as in Example 1 and then the yeast was dried. […]
To 50 g of the slurry yeast recovered from the beer fermentation step, 50 g of an aqueous trehalose solution (concentration: about 20%) was added. After stirring at 20° C. for 3 hours, the yeast was centrifuged, suspended in 50 g portions of 300 g/L aqueous solutions of various sugar alcohols and maintained at room temperature for 15 minutes. Subsequently, the yeast was filtered under suction on a filter paper No.2 as in Example 2. The obtained yeast was passed through a 14-mesh sieve and dried in a thermostat at 5° C. for about 20 hours. The dry yeast thus obtained was reconstituted with water as in Example 2 and stained with Methylene Blue to measure the mortality of the yeast.
To 50 g of the slurry yeast recovered from the beer fermentation step, 50 g of an aqueous trehalose solution (concentration: about 20%) was added. After stirring at 20° C. for 3 hours, the yeast was centrifuged, suspended in 50 g of an about 300 g/L aqueous glycerol solution and maintained at room temperature for 15 minutes. Subsequently, the yeast was filtered under suction on a filter paper No.2 as in Example 2. The obtained yeast was passed through a 14-mesh sieve and dried in a thermostat at 5° C. to 30° C. for about 20 hours. Alternatively, the yeast was dried by using a fluidized bed dryer at 30° C. for 1 hour. Each of the dry yeast thus obtained was rehydrated with water as in Example 2 and stained with Methylene Blue to measure the mortality of the yeast.

[1] abbreviates: sugar/sugar alcohol (about 20% solution, 20° C., 3 hours) as substitute for trehalose, then 300 g/L glycerol, dried at 5° C.
[2] abbreviates: glycerol 100 g/L after trehalose-treatment.
Setting [3] is: glycerol 150 g/L after trehalose-treatment.
The mark [4] stands for this setting: glycerol 200 g/L after trehalose-treatment.
Setting [5] is: glycerol 300 g/L after trehalose-treatment.
Setting [6] is: trehalose-treatment, then 300 g/L sugar alcohol as substitute for glycerol, 15 minutes, dried at 5° C.
[7] abbreviates: trehalose-treatment as in Example 2, after rehydration with water.

As for `O=C[C@H](O)[C@@H](O)[C@H](O[C@@H]1O[C@H](CO)[C@@H](O)[C@H](O)[C@H]1O)[C@H](O)CO` [Cellobiose], the “Methylene Blue-staining ratio (%) after reconstitution with water” value (from here on “Methylene Blue-staining ratio (%)”) under setting [1] came out at 54.8%.
In the case of `O=C(CO)[C@@H](O)[C@H](O)[C@H](O)CO` [Fructose], under setting [1], the “Methylene Blue-staining ratio (%)” value came to 51.1%.
On to `O=C[C@H](O)[C@@H](O)[C@@H](O)[C@H](O)CO` [Galactose], for which the “Methylene Blue-staining ratio (%)” value under setting [1] amounted to 40.6%.
As to `OCC(O)CO` [Glycerol, glycerol], the “Methylene Blue-staining ratio, after reconstitution with water after drying and storing at 25° C. for 8 days” value is 59.8% under setting [2], 62.3% under setting [3], 40.2% under setting [4] and 48.5% under setting [5]. For the same compound, the “Methylene Blue-staining ratio, before drying” value under setting [2] came to 20.8%; the “Methylene Blue-staining ratio, before drying” value under setting [3] turned out to be 66.7%; the “Methylene Blue-staining ratio, before drying” value under setting [4] stood at 97.8%; the “Methylene Blue-staining ratio, before drying” value under setting [5] stood at 99.6%; the “Methylene Blue-staining ratio, before drying” value (trehalose-treatment then 300 g/L aqueous glycerol, 15 minutes) stood at 95.8%. The “Methylene Blue-staining ratio, immediately after drying/reconstitution with water” value runs as follows: (glycerol 100 g/L after trehalose-treatment, dried at 5° C.) 30.8%; (glycerol 150 g/L after trehalose-treatment, dried at 5° C.) 23.7%; (glycerol 200 g/L after trehalose-treatment, dried at 5° C.) 26.3%; (glycerol 300 g/L after trehalose-treatment, dried at 5° C.) 26.2%. For the same compound, under “trehalose-treatment then 300 g/L aqueous glycerol, 15 minutes, dried at 5° C.”, the “Methylene Blue-staining ratio, after drying/reconstitution with water” value is listed as 18.3%. Moreover, under setting [6], the “Methylene Blue-staining ratio (%)” value is listed as 24.4%.
For `OC[C@H]1O[C@@H](O[C@H]2[C@H](O)[C@@H](O)C(O)O[C@@H]2CO)[C@H](O)[C@@H](O)[C@H]1O` (some centres unmarked) [Lactose], the “Methylene Blue-staining ratio (%)” value under setting [1] is 38.6%.
`OC[C@@H](O)[C@@H](O[C@H]1O[C@H](CO)[C@@H](O)[C@H](O)[C@H]1O)[C@H](O)[C@@H](O)CO` [Maltitol]: the “Elevating the survival ratio of the yeast after reconstitution with water, similar to glycerol” value is “effective” and the “Elevating the survival ratio of the dry yeast after reconstitution with water, similar to trehalose” value (“Elevating the survival ratio … to trehalose” below) is “effective”. Further, the “Methylene Blue-staining ratio (%)” value under setting [1] is 29.7%. Also, the “Methylene Blue-staining ratio (%)” value under setting [6] amounted to 30.1%.
Turning to `OC[C@H]1O[C@H](O[C@H]2[C@H](O)[C@@H](O)[C@H](O)O[C@@H]2CO)[C@H](O)[C@@H](O)[C@@H]1O` [Maltose], the “Methylene Blue-staining ratio (%)” value under setting [1] was determined as 56.4%.
Regarding `OC[C@@H](O)[C@@H](O)[C@H](O)[C@H](O)CO` [Mannitol], the “Elevating the survival ratio … to trehalose” value is “effective”. In addition, the “Methylene Blue-staining ratio (%)” value under setting [1] is recorded as 37.1%. The “Methylene Blue-staining ratio (%)” value under setting [6] came to 47.5%.
As to `OC[C@@H](O)[C@@H](O)[C@H](O)[C@@H](O)CO` [Sorbitol], the “Methylene Blue-staining ratio (%)” value amounted to 41.8% under setting [1] and 41.2% under setting [6].
Take `OC[C@H]1O[C@@](CO)(O[C@H]2O[C@H](CO)[C@@H](O)[C@H](O)[C@H]2O)[C@@H](O)[C@@H]1O` [Sucrose]: the “Methylene Blue-staining ratio (%)” value under setting [1] came to 51.9%.
With `OC[C@H]1O[C@H](O[C@H]2O[C@H](CO)[C@@H](O)[C@H](O)[C@H]2O)[C@H](O)[C@@H](O)[C@@H]1O` [Trehalose, trehalose], the “Ratio of the dead cells after drying and reconstitution with water” value (10° C., 1 or 3 hours) was “about 60%”; the “Ratio of the dead cells after drying and reconstitution with water” value (10° C., 21 hours) is reported as “about 90%”. The “Methylene Blue-staining ratio” value reads like this: (before drying, treated with 5% trehalose, 10° C., 1 Hrs) 8.97; (before drying, treated with 5% trehalose, 10° C., 3 Hrs) 8.45; (before drying, treated with 5% trehalose, 10° C., 21 Hrs) 11.88; (before drying, treated with 5% trehalose, 20° C., 1 Hrs) 6.58; (before drying, treated with 5% trehalose, 20° C., 3 Hrs) 7.51; (before drying, treated with 5% trehalose, 20° C., 21 Hrs) 16.44. Also, the “Methylene Blue-staining ratio” value reads like this: (before drying, treated with 10% trehalose, 10° C., 1 Hrs) 6.36; (before drying, treated with 10% trehalose, 10° C., 3 Hrs) 8.67; (before drying, treated with 10% trehalose, 10° C., 21 Hrs) 17.68; (before drying, treated with 10% trehalose, 20° C., 1 Hrs) 8.26; (before drying, treated with 10% trehalose, 20° C., 3 Hrs) 9.24; (before drying, treated with 10% trehalose, 20° C., 21 Hrs) 8.90. The “Methylene Blue-staining ratio” value is listed as 63.72 (immediately after reconstitution with water (dried at 30° C.), 5% trehalose, 10° C., 1 Hrs); 63.40 (immediately after reconstitution with water (dried at 30° C.), 5% trehalose, 10° C., 3 Hrs); 90.11 (immediately after reconstitution with water (dried at 30° C.), 5% trehalose, 10° C., 21 Hrs); 64.95 (immediately after reconstitution with water (dried at 30° C.), 5% trehalose, 20° C., 1 Hrs); 84.17 (immediately after reconstitution with water (dried at 30° C.), 5% trehalose, 20° C., 3 Hrs); 92.47 (immediately after reconstitution with water (dried at 30° C.), 5% trehalose, 20° C., 21 Hrs). Also, the “Methylene Blue-staining ratio” value runs as follows: (immediately after reconstitution with water (dried at 30° C.), 10% trehalose, 10° C., 1 Hrs) 69.51; (immediately after reconstitution with water (dried at 30° C.), 10% trehalose, 10° C., 3 Hrs) 64.95; (immediately after reconstitution with water (dried at 30° C.), 10% trehalose, 10° C., 21 Hrs) 79.33; (immediately after reconstitution with water (dried at 30° C.), 10% trehalose, 20° C., 1 Hrs) 62.15; (immediately after reconstitution with water (dried at 30° C.), 10% trehalose, 20° C., 3 Hrs) 62.04; (immediately after reconstitution with water (dried at 30° C.), 10% trehalose, 20° C., 21 Hrs) 87.43. For the same compound, the “Methylene Blue-staining ratio (%)” value under setting [1] was 32.2%. Moreover, the “Mortality (%) after drying at 30° C.” value under setting [7] amounted to 73.4%. Besides, the “Mortality (%) after drying at 50° C.” value under setting [7] was determined as 58.0%.
As for `OC[C@@H](O)[C@H](O)[C@@H](O)CO` [Xylitol], the “Elevating the survival ratio of the yeast after reconstitution with water, similar to glycerol” value is on record as “effective”. The “Methylene Blue-staining ratio (%)” value under setting [1] came to 41.6%. Under setting [6], the “Methylene Blue-staining ratio (%)” value turned out to be 30.4%.
With `OC1OC[C@@H](O[C@@H]2OC[C@@H](O)[C@H](O)[C@H]2O)[C@H](O)[C@H]1O` (some centres unmarked) [Xylobiose], under setting [1], the “Methylene Blue-staining ratio (%)” value is reported as 46.5%.
On to `O=C[C@H](O)[C@@H](O)[C@H](O)CO` [Xylose], for which the “Elevating the survival ratio … to trehalose” value is recorded as “effective”. The “Methylene Blue-staining ratio (%)” value under setting [1] came out at 37.7%.
